Assay results reported in patent US20240165140A1, “MEDICATION FOR INHIBITING DNA-PKCS” (TSINGHUA UNIVERSITY, priority 2017, published 2024).

Key:
[1] = system: DNA-PKcs signaling pathway; assay: Immunoblotting of DNA-PKcs signaling pathway activation induced by chemotherapeutic agent; assay type: cell-based; conditions: H1299 and A549 cells; for Level of the DNA-PKcs signaling pathway (p-DNA-PKcs (S2056), p-AKT (S473), p-P53 (S15)): single agent 1 h (Etoposide 10 μM, Endostatin 10 μg/ml, NU7026 10 μM); for Activation of the DNA-PKcs signaling pathway by Etoposide (p-DNA-PKcs (S2056), p-AKT (S473)): 10 μg/ml added 1 h before Etoposide 10 μM
From the text: Tumor cells (including non-small cell lung cancer H1299 and A549 cells) were divided into six treatment groups.
Tumor cells (including H1299 and A549 cells) were divided into six treatment groups.

H1299 and A549 cells = assay: Annexin V-FITC/PI apoptosis by flow cytometry with DNA-PKcs siRNA knockdown; assay type: cell-based; conditions: A549 (P53 wild-type) versus H1299 (P53-deficient); 1 μM versus 10 μM, 16 h
Experimental: In this example, tumor cells (including H1299 and A549 cells) were divided into eight treatment groups. In the first four groups, cells were transfected with control siRNA, and in the last four groups, cells were transfected with siRNA that specifically knocked down DNA-PKcs. The siRNA sequence of DNA-PKcs is: forward 5′-[…]-3′ (SEQ ID NO: 5), reverse 5′-[…]-3′ (SEQ ID NO: 6). The siRNA transfection method was performed according to the instructions of the transfection reagent Lipofectamine 2000. Then, in the eight groups, the cells were treated with drugs. […] Cells were collected and operations were performed according to the instructions of Annexin V-FITC/PI Apoptosis Detection Kit. Apoptosis was detected by flow cytometry. A549 cells were P53 wild-type cells, and H1299 cells were P53-deficient cells.

[2] = system: tumor cells with normal P53 function (H1299-P53 and A549-NC); assay: CCK8 cell activity, tumor cells with normal P53 function; assay type: cell-based
Experimental: (§1) First, a lentivirus kit (purchased from Shanghai Genepharma) was used to construct a P53 stably overexpressing H1299 cell line (H1299-P53) and a P53 stably knockdown A549 cell line […]. The P53 sequence targeted by the shRNA used to knock down P53 in A549 cells was 5′-[…]-3′ (SEQ ID NO: 4). Virus transfection and the construction of stable cell lines were performed according to the kit instructions. […] After treatment for 12 hours, the drug-containing medium was replaced with a normal medium and the cells were further cultured for 72 hours. Cell activity was measured according to the instructions of the CCK8 kit (Dojindo, Tokyo, Japan).
In this example, another chemical drug, Doxorubicin, was used to verify that Endostatin can enhance the sensitivity of P53-deficient tumor cells to chemotherapy. Operation process was the same as in Example 5.

[3] = system: tumor cells with normal P53 function (H1299-P53, A549-NC); assay: Cell colony formation, tumor cells with normal P53 function; assay type: cell-based; conditions: Etoposide 1 μM, 16 h; colonies after 14 days
Experimental: After the treatment, the cells were digested with trypsin, counted, and re-plated in a six-well plate with 1000 cells per well. The cells were cultured in a normal medium for 14 days to form cell colonies.

[4] = system: tumor cells with normal P53 function (H1299-P53, A549-NC); assay: PI staining apoptosis by flow cytometry, tumor cells with normal P53 function; assay type: cell-based; conditions: Etoposide 1 μM, 16 h
Experimental: The apoptotic cells and adherent cells floating in the culture medium were collected, and the cells were suspended in 500 μl PBS containing 0.05 mg/ml propidium iodide (PI), stained for 15 min at room temperature in dark, and detected by flow cytometry (BD FACS Calibur). PI-positive cells represent apoptotic cells.

A375 cells = assay: CCK8 cell activity, melanoma A375; assay type: cell-based; conditions: A375 (P53 wild type); Etoposide; operation process as in Example 5
Experimental: as §1
This example used two cell lines of another tumor type (melanoma), the MDA-MB-435S (P53 mutant) and A375 (P53 wild type) cell lines, to verify the regulatory function of Endostatin on the chemotherapeutic sensitivity of other types of tumor cells with different P53 status. Operation process was the same as in Example 5.

[5] = system: mRNA levels of BAX, NOXA, PUMA, and P21; assay: Real-time PCR of pro-apoptotic molecules, tumor cells with normal P53 function; assay type: cell-based; conditions: H1299-P53, A549-NC; Etoposide 1 μM, 16 h
Experimental: After the cells were treated as described above, the total RNA of the cells was extracted, and the relative changes in mRNA levels of BAX, NOXA, PUMA, and P21 in the cells were detected by real-time PCR.

H1299-NC tumor = assay: Subcutaneous tumor growth in nude mice, H1299-NC; assay type: in vivo; conditions: Day 19, compared with control group, Endostatin 20 mg/kg i.p. once a day, Etoposide 2 mg/kg i.p. once every two days
Experimental: (§2) Tumor-bearing nude mice were randomly divided into four groups with 6 to 8 animals for each group, and different drug treatments were performed. […] Tumor volume was measured every other day. 2 to 4 weeks after administration, the mice were sacrificed and the tumor tissue was removed for further use.

A549-shP53 tumor = assay: Subcutaneous tumor growth in nude mice, A549-shP53; assay type: in vivo; conditions: A549-shP53, Day 27; compared with control group; Endostatin 20 mg/kg i.p. once a day, Etoposide 2 mg/kg i.p. once every two days
Experimental: as §2

H1299-P53 tumor = assay: Subcutaneous tumor growth in nude mice, H1299-P53; assay type: in vivo; conditions: H1299-P53, Day 19; compared with control group; Endostatin 20 mg/kg i.p. once a day, Etoposide 2 mg/kg i.p. once every two days
Experimental: as §2

A549-NC tumor = assay: Subcutaneous tumor growth in nude mice, A549-NC; assay type: in vivo; conditions: Day 27, compared with control group, Endostatin 20 mg/kg i.p. once a day, Etoposide 2 mg/kg i.p. once every two days
Experimental: as §2

H1299 mouse tumor model = assay: Survival of H1299 tumor-bearing mice; assay type: in vivo; conditions: administration as in Example 12, stopped after 25 days
Experimental: as §2
(§3) H1299 and A549 cells were cultured in a vigorous and proliferative state, and tumor collection, grouping, and administration methods were the same as in Example 12. The administration was stopped after 25 days, and the survival of the mice was recorded daily, and the survival curve of the mice was plotted.

[6] = system: A549 tumor-bearing mice (normal P53 function); assay: Survival of A549 tumor-bearing mice; assay type: in vivo; conditions: A549, normal P53 function (FIG. 13B); compared with control group; administration as in Example 12, stopped after 25 days
Experimental: as §2, §3

[7] = system: PCNA and DNA-PKcs protein in H1299-NC and A549-shP53 tumor tissues; assay: Immunofluorescence of PCNA and DNA-PKcs in tumor tissue, P53-deficient mouse tumor model; assay type: in vivo, nude mice; conditions: H1299-NC and A549-shP53 tumors of Example 12; quantitative immunofluorescence
Experimental: as §2
(§4) The tumor tissue removed in Example 12 was fixed and embedded, and then sectioned. PCNA (a marker molecule indicating the vigorous proliferation status of tumor cells) and DNA-PKcs protein in tumor tissues were stained by immunofluorescence technique, and were observed and imaged with a laser confocal microscope (Nikon A1). The experimental results are shown in FIG. 14A-14D, in which blue represents the nucleus of DAPI-stained cells, green represents the DNA-PKcs protein, and red represents the PCNA protein. Taking the H1299-NC tumor tissue shown in FIG. 14A as an example, the first column on the left represents DNA-PKcs single staining, and the green area represents the DNA-PKcs protein expression level. The second column on the left represents the results of DNA-PKcs (green) merged with nucleus (blue), and the overlapping part is shown in cyan. The third column on the left represents PCNA single staining, and the red area represents the PCNA protein expression level, indicating the strength of tumor cell proliferation. […]

[8] = system: PCNA and DNA-PKcs protein in H1299-P53 and A549-NC tumor tissues; assay: Immunofluorescence of PCNA and DNA-PKcs in tumor tissue, mouse tumor model with normal P53 function; assay type: in vivo, nude mice; conditions: H1299-P53 and A549-NC tumors of Example 12; quantitative immunofluorescence
Experimental: as §2, §4

[9] = system: DNA-PKcs, PARP, γH2AX and Caspase-3 signaling pathways; assay: Immunoblotting of DNA damage and apoptotic pathway, P53-deficient tumor cells; assay type: cell-based; conditions: H1299-NC, A549-shP53; Endostatin 10 μg/ml, Etoposide 10 μM 16 h, z-DEVD-fmk 10 μM; Endostatin and z-DEVD-fmk added 1 h before Etoposide
From the text: In this example, tumor cells (H1299-NC, H1299-P53, A549-NC, A549-shP53) were divided into six treatment groups.

Molecule: COc1cc([C@@H]2c3cc4c(cc3[C@@H](O[C@@H]3O[C@@H]5CO[C@@H](C)O[C@H]5[C@H](O)[C@H]3O)[C@H]3COC(=O)[C@H]23)OCO4)cc(OC)c1O [Etoposide, reference compound]
- Level of the DNA-PKcs signaling pathway (p-DNA-PKcs (S2056), p-AKT (S473)) ([1]; Example 15, Etoposide 10 μM, 1 h, compared with control group): activated the level of the DNA-PKcs signaling pathway in H1299 and A549 cells
- Level of the DNA-PKcs signaling pathway (p-DNA-PKcs (S2056), p-AKT (S473), p-P53 (S15)) ([1]; compared with control group): activated the level of the DNA-PKcs signaling pathway
- Sensitivity of cells to the chemotherapeutic agent (apoptosis) (H1299 and A549 cells): A549 cells were more sensitive to the chemotherapeutic agent
- Activity of tumor cells ([2]; Etoposide 0, 0.1, 1, 10 μM, 12 hours treatment, 72 hours further culture): could significantly inhibit the activity of tumor cells
- Colony-forming ability of tumor cells [3]: could significantly inhibit the colony-forming ability of tumor cells
- Apoptosis of tumor cells (PI-positive cells) [4]: could significantly promote the apoptosis of tumor cells
- Activity of tumor cells (A375 cells): could significantly inhibit the activity of tumor cells
- mRNA levels of pro-apoptotic molecules BAX, NOXA, PUMA, P21 [5]: could significantly up-regulate the above pro-apoptotic molecules
- tumor suppression rate (H1299-NC tumor): 28.0%
- tumor suppression rate (A549-shP53 tumor): 39.3%
- tumor suppression rate (H1299-P53 tumor): 30.0%
- tumor suppression rate (A549-NC tumor): 34.0%
- median survival time longer than that of the control group (H1299 mouse tumor model): 30.3%
- Survival time of mice [6]: could prolong the survival time of the mice to some extent
- Tumor cell proliferation (PCNA) and protein level of DNA-PKcs in tumor tissue [7]: can attenuate tumor cell proliferation to a certain extent and reduce the protein level of DNA-PKcs
- Tumor cell proliferation (PCNA) and protein level of DNA-PKcs in tumor tissue [8]: could reduce the proliferation of tumor cells and reduce the protein level of DNA-PKcs

Molecule: COc1cccc2c1C(=O)c1c(O)c3c(c(O)c1C2=O)C[C@@](O)(C(=O)CO)C[C@@H]3O[C@H]1C[C@H](N)[C@H](O)[C@H](C)O1 [Doxorubicin, reference compound]
- Activity of tumor cells ([2]; Doxorubicin, operation process as in Example 5): could significantly inhibit the activity of tumor cells

Molecule: O=c1cc(N2CCOCC2)oc2c1ccc1ccccc12 [NU7026, reference compound]
- Level of the DNA-PKcs signaling pathway (p-DNA-PKcs (S2056), p-AKT (S473), p-P53 (S15)) ([1]; compared with control group): did not affect the level of the DNA-PKcs signaling pathway

Molecule: z-DEVD-fmk [reference compound]
- DNA-PKcs, PARP, γH2AX and Caspase-3 signaling pathway levels [9]: could reverse the synergistic effect of Endostatin and Etoposide to some extent

B1: PEG-Endostatin: natural human endostatin modified with 20 kDa mPEG-ALD at the N-terminal α-amino group (conjugate)
chain: MHSHRDFQPVLHLVALNSPLSGGMRGIRGADFQCFQQARAVGLAGTFRAFLSSRLQDLYSIVRRADRAAVPIVNLKDELLFPSWEALFSGSEGPLKPGARIFSFDGKDVLRHPTWPQKSVWHGSDPNGRRLTESYCETWRTEAPSATGQASSLLGGRLLGQSAASCHHAYIVLCIENSFMTASK
- Activation of the DNA-PKcs signaling pathway by Etoposide (p-DNA-PKcs (S2056), p-AKT (S473)) ([1]; Example 15, 1 h): inhibited the activation of the DNA-PKcs signaling pathway by Etoposide

B2: ZBP-Endostatin: endostatin variant obtained by adding 9 additional amino acids (MGGSHHHHH) to the N-terminus of natural human endostatin, SEQ ID NO: 3 (protein)
chain: MGGSHHHHHHSHRDFQPVLHLVALNSPLSGGMRGIRGADFQCFQQARAVGLAGTFRAFLSSRLQDLYSIVRRADRAAVPIVNLKDELLFPSWEALFSGSEGPLKPGARIFSFDGKDVLRHPTWPQKSVWHGSDPNGRRLTESYCETWRTEAPSATGQASSLLGGRLLGQSAASCHHAYIVLCIENSFMTASK
modifications: The amino acid sequence of ZBP-Endostatin
- Activation of the DNA-PKcs signaling pathway by Etoposide (p-DNA-PKcs (S2056), p-AKT (S473)) ([1]; Example 15, 1 h): inhibited the activation of the DNA-PKcs signaling pathway by Etoposide
